From patent US12419848B2, “Treatment of hyperinflammatory syndrome” (priority 2020, dated 2025)
Where a name gives a salt, the structure may show the parent alone.

Legend:
P2X7R = target: T1, P2X7R (Homo sapiens, UniProt Q99572); set-up: endogenous in cells; host or cells: human subjects (clinical trials reported elsewhere); details: administered orally; cited from earlier work
T1 sequence (Q99572 1-595): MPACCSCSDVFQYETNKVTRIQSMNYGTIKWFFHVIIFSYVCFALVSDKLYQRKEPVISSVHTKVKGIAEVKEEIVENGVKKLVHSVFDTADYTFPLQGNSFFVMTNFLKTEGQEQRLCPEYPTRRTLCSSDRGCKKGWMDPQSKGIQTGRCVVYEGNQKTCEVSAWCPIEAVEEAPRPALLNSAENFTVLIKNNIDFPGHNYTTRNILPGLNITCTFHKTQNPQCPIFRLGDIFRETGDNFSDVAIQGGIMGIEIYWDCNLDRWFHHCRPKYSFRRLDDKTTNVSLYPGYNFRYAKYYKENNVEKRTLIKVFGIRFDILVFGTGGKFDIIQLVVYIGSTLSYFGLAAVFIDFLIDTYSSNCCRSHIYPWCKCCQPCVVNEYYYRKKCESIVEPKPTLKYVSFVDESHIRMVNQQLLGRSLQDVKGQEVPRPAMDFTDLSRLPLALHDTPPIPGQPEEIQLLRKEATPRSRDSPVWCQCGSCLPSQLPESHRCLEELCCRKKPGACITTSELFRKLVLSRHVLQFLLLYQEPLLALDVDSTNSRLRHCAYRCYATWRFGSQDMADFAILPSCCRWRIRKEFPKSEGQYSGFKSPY

[1] = tested on: posttraumatic epileptic seizures; test: Example 21: posttraumatic epileptic seizures; type: in vivo, human
[2] = tested on: psoriatic arthritis, herpes zoster infection; test: Example 11: psoriatic arthritis with herpes zoster
[3] = tested on: chronic interstitial cystitis; test: Example 13: chronic interstitial cystitis; type: in vivo, human; details: for effect on symptoms (prior treatment): in vivo
[4] = tested on: idiopathic Parkinson's disease
acute lumbago = test: Example 32: acute lumbago; type: in vivo, human; details: sublingual 4×100 mg/d, after 30 minutes
ischaemic cardiomyopathy = test: Example 31: ischaemic cardiomyopathy; type: in vivo, human
diabetic polyneuropathy = test: Example 23: diabetic polyneuropathy; type: in vivo, human
SLE peritonitis = test: Example 33: systemic lupus erythematosus; type: in vivo, human
Alzheimer's disease = test: Example 19: Alzheimer's dementia; type: in vivo, human; details: sublingual 4×100 mg/d, after 3 months; before 15
myasthenia gravis = test: Example 24: myasthenia gravis; type: in vivo, human
Description: A person was diagnosed having myasthenia gravis. They suffered from muscle weakness of the arms and hand after physical activity. The diagnosis was confirmed with EMG and positive test for antibodies against acetylcholine receptor (AChR). They were treated with oral anticholinesterase drug (mestinon) 4×60 mg/d. […] The treatment was continued for 2 weeks.

[5] = tested on: inflammatory bowel disease with perianal fistulae; test: Example 28: inflammatory bowel disease with perianal fistulae; type: in vivo; details: dog, 4×100 mg/d applied into the largest fistula, after 1 week
ulcerative colitis = test: Example 27: ulcerative colitis; type: in vivo, human
COPD = test: Example 25: COPD; type: in vivo, human; details: sublingual 4×100 mg/d, after 3 months; before 60%
COVID-19 [6] = test: Example 7: COVID-19 case; type: in vivo, human
Source text: On Mar. 24, 2020, a person developed cough, dyspnoea, myalgia, pain in hip and groin, shivers but no fever. A COVID-19 test was not performed. This occurred one week after closely working together with a colleague who developed proven severe COVID-19 requiring hospital admission.
On Jul. 12, 2020, (day 1) the patient developed new symptoms comprising shivers, joint pain (knees, hips, shoulders) and conjunctivitis of the left eye. They reported sick at work. The infection probably occurred on Jul. 1, 2020. On that day they met many people during their work at the office and in the evening they went for a drink in a bar with a few colleagues. The infection occurred despite social distancing and hand sanitising. At that time no one wore a face mask. […] On July 21 (day 10), 2020, the IgA antibody test for COVID-19 result was positive.
A few hours later a clinical deterioration occurred with extreme fatigue, chest pain and pain in the right upper arm. The treatment was converted to transdermal lidocaine cream. […] As much as 400 mg cream is applied over the skin and covered by Tegaderm transparent wound dressing. […] But after 6 hours the infusion rate was increased to 63 mg/hour (1 mg/kg/hr) due to persistent symptoms.
Day 85, after almost 3 weeks with no symptoms other than a fluctuating pain in the upper arm, the prickling sensations of the lung returned. SpO2 96%, HR 90/min, BP 95/68 mm Hg, temperature […]. […] Inhalation of the lidocaine solution was avoided.

[7] = Examples 1-6: safety (ECG, metHb, confusion); details: for Blood metHb: within the normal range
COVID-19 [8] = type: in vivo
ALS = test: Example 18: amyotrophic lateral sclerosis; type: in vivo, human
[9] = tested on: renal function impairment; test: Example 16: advanced cervix carcinoma and renal dysfunction; type: in vivo, human; details: continuous subdermal 1 mg/kg/hr
terminal cancer patients = test: Example 17: diverse cancer, palliative; type: in vivo, human; details: for time to relief of pain, nausea and/or extreme fatigue: continuous subcutaneous 1 mg/kg/hr; for SIP68: 10 patients, before treatment 48 (range 18-68)
rheumatoid arthritis = test: Example 30: rheumatoid arthritis; set-up: species or system human; details: in vivo
[10] = sublingual 4×100 mg/d, after 1 month

Compound: O=C(NCC12CC3CC(CC(C3)C1)C2)c1cc(CCCNCCCO)ccc1Cl [AZD9056]
- outcome of oral administration (P2X7R): without great success

Compound: COC[C@H](O)Cn1c(=O)cnn(-c2ccc(Cl)c(C(=O)NCC3(O)CCCCCC3)c2)c1=O [CE-224,535 500]
- outcome of oral administration (P2X7R): without great success

Compound: CCN(CC)CC(=O)Nc1c(C)cccc1C [Lidocaine hydrochloride]
- EEG epileptic activity of the brain ([1]; subdermal 1 mg/kg/hour): had disappeared
- time to disappearance of seizures ([1]; subdermal 1 mg/kg/hour, 20 mg/ml solution): ≤ 30 min

Compound: CN1CC[C@]23c4c5ccc(O)c4O[C@H]2[C@@H](O)C=C[C@H]3[C@H]1C5 [Morphine]
- effect on herpes zoster pain ([2]; before lidocaine treatment): did not subside the pain
- side effect ([2]; in vivo): developed obstipation

Compound: COc1ccc2c3c1O[C@H]1C(=O)CC[C@@]4(O)[C@@H](C2)N(C)CC[C@]314 [Oxycodone]
- effect on symptoms (prior treatment) [3]: had no effect on their symptoms

Compound: CN1C(=O)CN=C(c2ccccc2)c2cc(Cl)ccc21 [diazepam]
- effect on generalised epileptic seizures ([1]; repeated 10 mg intravenous): had no effect

Compound: N[C@@H](Cc1ccc(O)c(O)c1)C(=O)O [levodopa]
- side effect after increasing dosage ([4]; in vivo): levodopa-induced chorea
- symptoms (prior treatment) ([4]; initially, symptoms returned after 6 years): the symptoms improved clearly

Compound: CCN(CC)CC(=O)Nc1c(C)cccc1C [lidocaine base, lidocaine]
- symptoms disappeared (acute lumbago): 95%
- chest pain episodes (ischaemic cardiomyopathy; after 3 weeks): significantly diminished
- cardiac ejection fraction (transthoracic echocardiographic) (ischaemic cardiomyopathy; sublingual 4×100 mg/d, after 3 months, before 31%): 42%
- muscle strength of hands (diabetic polyneuropathy; after 3 months): improved significantly
- tingling feelings in hands and feet (diabetic polyneuropathy; sublingual 4×100 mg/d, after a few days): disappeared completely
- abdominal distension (SLE peritonitis; after 2 weeks): disappeared completely
- clinical symptoms (SLE peritonitis; sublingual 4×100 mg/d): disappeared in the course of 6 days
- MMSE Test total score (Alzheimer's disease): 23
- tendency to fall [4, 10]: gradually improved
- tremor [4, 10]: almost disappeared
- influenza A viral infection symptoms (myasthenia gravis; sublingual 4×100 mg/d): disappeared almost completely
- time to significant improvement of muscle weakness of arms and hand (myasthenia gravis; sublingual 4×100 mg/d): ≤ 4 h
- oozing opaque fluid secretion and bad odour [5]: had disappeared
- symptoms (ulcerative colitis; sublingual 4×100 mg/d, after 3 days): completely disappeared
- FEV1 (COPD): 84%

Compound: CCN(CC)CC(=O)Nc1c(C)cccc1C [lidocaine]
- symptoms (COVID-19 [6]; continuous subdermal 0.5 mg/kg/hr, after a few hours (March 2020)): practically free of symptoms
- symptoms (COVID-19 [6]; day 11, infusion 24 hours per day): improved gradually
- symptoms (COVID-19 [6]; day 12-13, subdermal 0.63 mg/kg/hr plus amoxicilline): improved significantly
- clinical improvement (COVID-19 [6]; day 18, subdermal 40 mg/hour, after 1 hour): clinical improvement was noticeable
- symptoms (COVID-19 [6]; day 18, subdermal 63 mg/hour (1 mg/kg/hr)): the symptoms disappeared with the exception of the pain in the upper arm
- symptoms (COVID-19 [6]; day 23, lidocaine infusion): reduced the symptoms to tolerable levels
- time to improvement of symptoms (COVID-19 [6]; day 46, continuous subdermal 0.63 mg/kg/hr): ≤ 30 min
- symptoms (COVID-19 [6]; day 61, continuous subdermal 0.63 mg/kg/hr): the symptoms subsided
- time to disappearance of prickling sensations and oppressive feeling on chest (COVID-19 [6]; from day 85, sublingual 3×100 mg/d): 20 min
- symptoms after relapse (COVID-19 [6]; reinitiated continuous subcutaneous infusion): subsided again
- symptoms (COVID-19 [6]; subdermal 0.63 mg/kg/hr, day 1 (Jul. 12, 2020)): improved within a few hours
- clinical condition (COVID-19 [6]; subdermal infusion reinitiated Apr. 1, 2020, after a few days): the clinical condition improved
- new ECG changes during treatment with lidocaine ([7]; Patient 1): No new ECG changes
- Blood metHb ([7]; Patient 1): 0.3-0.8%
- new ECG changes during treatment with lidocaine ([7]; Patient 2): No new ECG changes
- signs of confusion after extubation ([7]; Patient 2, day 22, on lidocaine): no signs of confusion
- Blood metHb ([7]; Patient 2): 0.1-0.6%
- new ECG changes during treatment with lidocaine ([7]; Patient 3): No new ECG changes
- signs of confusion after extubation ([7]; Patient 3, day 5): no signs of confusion
- Blood metHb ([7]; Patient 3): 0.1-0.4%
- new ECG changes during treatment with lidocaine ([7]; Patient 4): No new ECG changes
- signs of confusion after extubation ([7]; Patient 4): no signs of confusion
- Blood metHb ([7]; Patient 4): 0.1-0.3%
- new ECG changes during treatment with lidocaine ([7]; Patient 5): No new ECG changes
- signs of confusion after extubation ([7]; Patient 5, day 10): no signs of confusion
- Blood metHb ([7]; Patient 5): 0.1-0.3%
- new ECG changes during treatment with lidocaine ([7]; Patient 6): No new ECG changes
- signs of confusion after extubation ([7]; Patient 6, day 10): no signs of confusion
- Blood metHb ([7]; Patient 6): 0.1-0.3%
- all symptoms except dry mouth feelings and mild fatigue (COVID-19 [8]; day 8, sublingual 3×60 mg/d): disappeared completely
- runny nose, headache, neck pain and neck stiffness (COVID-19 [8]; sublingual 5×60 mg, 24 hours after initiation): disappeared
- symptoms ([3]; continuous subcutaneous 1 mg/kg/hr, after 2 days): practically free of symptoms
- symptoms (polymyalgia rheumatica; nocturnal continuous subdermal 0.5 mg/kg/hr, 8 hours, 2 x/week): disappeared after the first treatment
- time to disappearance of symptoms (polymyalgia rheumatica; sublingual 2×60 mg/d): ≤ 1 h
- MRC muscle strength: Upper arm abduction left (ALS; six months, sublingual 4×100 mg/d, before 4): 5
- MRC muscle strength: Foot extension left (ALS; six months, before 1): 2
- MRC muscle strength: Foot extension right (ALS; six months, before 1): 2
- MRC muscle strength: Foot flexion left (ALS; six months, before 2): 3
- MRC muscle strength: Foot flexion right (ALS; six months, before 2): 3
- MRC muscle strength: Elbow flexion left (ALS; six months, before 4): 4
- MRC muscle strength: Elbow flexion right (ALS; six months, before 4): 4
- MRC muscle strength: Knee flexion left (ALS; six months, before 4): 5
- MRC muscle strength: Knee flexion right (ALS; six months, before 4): 5
- MRC muscle strength: Upper arm abduction right (ALS; six months, before 4): 5
- muscle cramping (ALS; sublingual 4×100 mg/d, after one week): gradually disappeared
- renal function [9]: improved
- time to relief of pain, nausea and/or extreme fatigue (terminal cancer patients; 7 of 10 patients): ≤ 2 h
- SIP68 (terminal cancer patients; after 3 days): 33 (range 12-58)
- SIP68 (terminal cancer patients; after 7 days): 28 (range 12-56)
- time to relief of pain, nausea and/or extreme fatigue (terminal cancer patients; remaining patients): ≤ 48 h

Compound: Nc1ccc(O)c(C(=O)O)c1 [mesalamine]
- response of symptoms in this exacerbation (ulcerative colitis; oral CR 3×400 mg/d): did not respond

Compound: CN(C)C(=O)Oc1ccc[n+](C)c1 [mestinon]
- efficacy during influenza A infection (myasthenia gravis; oral 4×60 mg/d): no longer effective

Compound: CN(Cc1cnc2nc(N)nc(N)c2n1)c1ccc(C(=O)N[C@@H](CCC(=O)O)C(=O)O)cc1 [methotrexate]
- effect on symptoms (prior treatment) (rheumatoid arthritis): did not improve the symptoms

Compound: CC(=O)Nc1ccc(O)cc1 [paracetamol]
- effect on symptoms (prior treatment) [3]: had no effect on their symptoms

Compound: tocilizumab: disease-modifying antirheumatic drug
- effect on symptoms (prior treatment) (rheumatoid arthritis): did not improve the symptoms
